Laboratory results taken from US5369111A, “Modulator agent and use thereof” (University of Vermont, priority 1992, dated 1994).

Key:
RCC-5 cells = assay: Modulation of intrinsic drug resistance, RCC-5; assay type: cell-based, rat; conditions: VCR
Protocol: (§1) Mid-exponential cultures were used for all assays. The RCC-2 and RCC-5 cell lines were seeded into 24-well plates at 2×10^4 cells/well and allowed to attach to the substratum for 16-18 h prior to treatment. The S180 cell lines were seeded into culture tubes at 1×10^5 cells/ml and treated immediately. Cytotoxicity was determined by quantitation of population growth after 72 h incubation by electronic particle counter (Coulter Electronics, Hialeah, Fla.). The human tumor cell lines were used in a clonogenic assay for cytotoxicity. Cells were seeded at 300 cells/dish, incubated overnight and then treated. Colonies were scored 7-11 days later. In all assays of analog modulation of drug sensitivity, the analog was added minutes prior to the addition of cytotoxic drug.
*calculated as the IC50 of the drug alone divided by the IC50 o
the [drug modulator] combination. Data are presented from tretments with
the nontoxic concentration limit of each analog as noted.
FIG. 9 represents the modulation of VCR sensitivity in the RCC-12 (A) and RCC-5 (B) cell lines by the analog C-20'-deoxy deethyl vincovaline. Population growth was determined after 72 hours incubation in the absence (o), or presence of 10 μM (o), 20 μM (Δ), or 50 μM of analog. Data presented are from a typical experiment.

S180 cells, parental = assay: Modulation of intrinsic drug resistance, parental S180; assay type: cell-based, murine; conditions: S180 parental
Outline: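 Parental S180 cells at 1×10^5 cells/ml treated with modulator (10^-6 M up to non-toxic IC10-20 or solubility limit) added minutes before VBL, VCR or ADM; growth counted electronically after 72 h. Sensitivity index = drug IC50 alone / drug IC50 with modulator; duplicates from two experiments.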

RCC-2 and RCC-5 cells = assay: Inhibition of population growth of rat colon cancer cell lines RCC-2 and RCC-5; assay type: cell-based; conditions: RCC-2 and RCC-5
Excerpt: The analogs were examined in a panel of tumor cell lines of both intrinsic and acquired drug resistance, as described in Table 1. The rat colon adenocarcinoma cell lines RCC-2 and RCC-5 (ref. 13) were maintained in Ham's F12 medium supplemented with 5% heat-inactivated, fetal bovine serum (Sterile Systems. Hyclone, Logan, Utah). The two rat colon cancer cell lines differ in their degree of cellular differentiation; whereas the RCC-2 cell line is undifferentiated, the RCC-5 cell line is highly mucinous. The human epidermoid carcinoma cell line KB-3-1 and its MDR variant KB-Vl, selected by VBL treatment (ref. 14; courtesy of M. Gottesman. National Cancer Institute), was maintained in DMEM medium supplemented with 10%, heat-inactivated, fetal bovine serum. […]
Mid-exponential cultures were used for all assays. […] Cytotoxicity was determined by quantitation of population growth after 72 h incubation by electronic particle counter (Coulter Electronics, Hialeah, Fla.). […] Colonies were scored 7-11 days later. […]
FIG. 7 represents the toxicity of analog C-20'-deoxy vincovaline (A) and C-20'-deoxy deethyl vincovaline (B) to population growth of the rat colon adenocarcinoma cell lines. The congener was added at various concentrations to RCC-2 (.cndot.) and RCC-5 (Δ) cell cultures and the population cell number was determined 72 hours later. […]

[1] = Viability (MTT test) of P388 R cells; assay type: cell-based, mouse; conditions: mouse; resistant cells P388 R, 24 h and 48 h; read-out: concentrations up to which no cytotoxicity is seen
Excerpt: (§2) The sensitization of C-20'-deoxy C-20'-deethyl vincovaline (D-DEV) has been tested on sensitive and resistants P388 cell lines originating from mouse lympnoma.
(§3) The resistance to anticancerous drug has been induced on DBA2 mouses bearing P388 cells ascites and maintained by treatment with adryamycin.
(§4) This study has been carried out at least in triplicate.

S180/A10 cells = assay: Modulator potency in MDR cells: reversal of acquired resistance, S180/A10; assay type: cell-based, murine
Outline: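 S180/A3 and S180/A10 MDR cells at 1×10^5 cells/ml exposed to a modulator concentration range, added minutes before VBL, VCR or ADM at parental-cell IC70s. Growth counted by electronic particle counter after 72 h. Value is the minimal modulator concentration restoring 70% growth inhibition; mean of 2-3 experiments.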

[2] = Clonogenic assay for cytotoxicity, MDR variant KB-V1; assay type: cell-based, human; conditions: human, kb-v1 cells; read-out: non-toxic concentration limit
Excerpt: The analogs were examined in a panel of tumor cell lines of both intrinsic and acquired drug resistance, as described in Table 1. The rat colon adenocarcinoma cell lines RCC-2 and RCC-5 (ref. 13) were maintained in Ham's F12 medium supplemented with 5% heat-inactivated, fetal bovine serum (Sterile Systems. Hyclone, Logan, Utah). The two rat colon cancer cell lines differ in their degree of cellular differentiation; whereas the RCC-2 cell line is undifferentiated, the RCC-5 cell line is highly mucinous. The human epidermoid carcinoma cell line KB-3-1 and its MDR variant KB-Vl, selected by VBL treatment (ref. 14; courtesy of M. Gottesman. National Cancer Institute), was maintained in DMEM medium supplemented with 10%, heat-inactivated, fetal bovine serum. The murine sarcoma cell line […] and its MDR strains A3 and A10 selected by ADM treatment (ref. 15; courtesy of T. Tritton, Dept. Pharmacology, Univ. Vermont). were maintained in DMEM medium supplemented with 10% heat-inactivated, horse serum (Hazelton Biolog. Lenexa, Kans.). Stock cultures were subcultured twice weekly upon reaching the late exponential phase of population growth: population doubling times were 18-24 h. Antibiotics were not used in stock or experimental cultures. The MDR cell strains were grown in drug-free media for 48 h prior to experimental use.
as §1
(§5) FIG. 10 represents the potency of the analog C-20'-deoxy deethyl vincovaline as a modulator of the drug sensitivity of various cell lines: the parental S180 cell line: the two rat colon cancer cell lines, RCC-2 and RCC-5; and the human epidermoid carcinoma cell line KB-3-1 and its MDR cell strain KB-V1, which expresses very high levels of drug resistance (200-500 fold). The enhancement of sensitivity was calculated as the sensitivity index =IC50 of the drug alone divided by the IC50 of the drug+analog. The drugs examined were ADM (o), VBL (Δ), and VCR (.quadrature.). The cytotoxicity of drug and analog treatments in the KB cell lines were measured by cloning efficiencies. The arrows denote the non-toxic concentration limit of the analog in each cell line.

[3] = Viability (MTT test) of P388 S cells; assay type: cell-based; conditions: mouse; sensitive cells P388 S, 24 h and 48 h; read-out: concentrations up to which no cytotoxicity is seen
Excerpt: as §2, §3, §4

KB-3-1 cells = assay: Modulation of drug sensitivity, KB-3-1; assay type: cell-based, human; conditions: ADM, VBL, VCR
Protocol: as §1
as §5, with “The drugs examined were ADM (o), VBL (Δ), and VCR (.quadrature.).” left out, “The arrows denote the non-toxic concentration limit of the analog in each cell line.” left out

KB-V1 cells = assay: Modulation of acquired resistance, KB-V1; assay type: cell-based, human; conditions: at the non-toxic concentration limit of 20 μM
Protocol: as §1
as §5, with “The drugs examined were ADM (o), VBL (Δ), and VCR (.quadrature.).” left out, “The arrows denote the non-toxic concentration limit of the analog in each cell line.” left out

CC[C@]12C=CCN3CC[C@@]4(c5cc([C@]6(C(=O)OC)C[C@H]7CCCN(CCc8c6[nH]c6ccccc86)C7)c(OC)cc5N(C)[C@H]4[C@@](O)(C(=O)OC)[C@@H]1OC(C)=O)[C@@H]32 [analog n° 352, C-20'-deoxy-20'-deethyl-C-14', 16'-epi-VBL]
maximum sensitization to VCR (RCC-5 cells; RCC-5): 28 fold
concentration overcoming the greater intrinsic resistance of RCC-5 to VCR (RCC-5 cells; RCC-5 compared to RCC-2): 10 to 20 µM
maximum degree of sensitization to ADM (S180 cells, parental; ADM): 5.5 fold
maximum degree of sensitization to VBL and VCR (S180 cells, parental; VBL and VCR): 2.3-2.7 fold
reduction in cytotoxicity to the colon cancer cell lines compared to C-20'-deoxy vincovaline (RCC-2 and RCC-5 cells): 10 fold
MNTC [1]: ≥ 100 µM
reversal of high level ADM resistance (in words) (S180/A10 cells; A10 cells, 90 fold ADM resistance): can reverse high level (90-fold) ADM resistance in MDR cells
reversal of high level ADM resistance (S180/A10 cells; ADM, 90-fold resistance, A10): 80%
MNTC [2]: 20 µM
MNTC [3]: ≥ 25 µM
sensitization to all three drugs (KB-3-1 cells): 3-5 fold
sensitization to VCR only (KB-V1 cells): 6 fold
